Consider 25 molecules from US20230159546A1, “NOVEL SPIROPYRROLIDINE DERIVED ANTIVIRAL AGENTS” (Enanta Pharmaceuticals, Inc., priority 2021, published 2023).

Assay [1] deals with 229E human corona virus (hCoV). As to the kind of experiment: 229E live virus assay (CPE, ATPlite readout, MRC-5 cells). The note with it: Human coronavirus 229E, MRC5, 144 h, read-out: 229E EC50. The assay is classed as cell-based, hCoV-229E. Background: In ATP-based viability assays light output follows the ATP content of the culture.
In assay [2] the target is SARS-CoV-2 3CL-protease (Severe acute respiratory syndrome coronavirus 2, UniProt P0DTD1). As to the kind of experiment: SARS-CoV-2 3C-like (3CL) protease fluorescence assay (FRET). The assay is classed as biochemical. The note with it: recombinant SARS-CoV-2 3CL-protease 10 nM, 30 min preincubation at RT, duplicate; read-out: FRET IC50.
[3] abbreviates: MRC-5 cells, MOI 0.05, 6 days at 34° C., ATPlite, duplicate.

Where two headings read alike, the source gives them in different places.

For `N#C[C@@H]1C[C@@]2(CN1C(=O)C1CC1)C(=O)Nc1ccccc12` [Example 42], the EC50 in assay [1] (setting [3]) is over 1000 nM. The IC50 in assay [2] is over 1000 nM.

Take `CC(C)C[C@H](C(=O)Nc1cc(F)cc(F)c1)C(=O)N1C[C@]2(C[C@H]1C#N)C(=O)Nc1ccccc12` (single isomer, unassigned) [Example 12]: in assay [1] (setting [3]), the EC50 is over 1000 nM. For the same molecule, the IC50 in assay [2] was over 1000 nM.

`N#C[C@@H]1C[C@@]2(CN1C(=O)[C@@H](Cc1ccccc1)C(=O)Nc1cc(F)cc(F)c1)C(=O)Nc1ccccc12` [Example 25]: the concentration for a half-maximal effect (EC50) in assay [1] (setting [3]) is over 1000 nM. Also, the IC50 in assay [2] lay in the range of 100 to 1000 nM.

On to `CC(C)CC(C(=O)Nc1cc(F)cc(F)c1)C(=O)N1C[C@]2(C[C@H]1C#N)C(=O)Nc1ccccc12` (stereo partly shown) [Example 7], for which the concentration giving a half-maximal response (EC50) in assay [1] (setting [3]) lay within 100 to 1000 nM. Further, the IC50 in assay [2] was over 1000 nM.

As for `CC(=O)N1C[C@]2(C[C@H]1C#N)C(=O)Nc1ccccc12` [Example 29], in assay [1] (setting [3]), the EC50 fell in the range of 100 to 1000 nM. In addition, in assay [2], the IC50 was over 1000 nM.

`N#C[C@@H]1C[C@@]2(CN1C(=O)C(Cc1ccccc1)C(=O)Nc1ccc3ccccc3c1)C(=O)Nc1ccccc12` (stereo partly shown) [Example 24]: the concentration for a half-maximal effect (EC50) in assay [1] (setting [3]) was over 1000 nM. Besides, the IC50 in assay [2] fell in the range of 100 to 1000 nM.

For the molecule `N#C[C@@H]1C[C@@]2(CN1C(=O)NC1CC1)C(=O)Nc1ccccc12` [Example 48], the EC50 in assay [1] was over 1000 nM. Besides, in assay [2], the IC50 was over 1000 nM.

Regarding `N#C[C@@H]1C[C@@]2(CN1C(=O)c1cc3ccccc3nc1Cl)C(=O)Nc1ccccc12` [Example 37], the EC50 in assay [1] (setting [3]) is over 1000 nM. In addition, the IC50 in assay [2] is over 1000 nM.

As to `N#C[C@@H]1C[C@@]2(CN1S(=O)(=O)c1ccc(Oc3ccccc3)cc1)C(=O)Nc1ccccc12` [Example 35], in assay [1] (setting [3]), the EC50 was over 1000 nM. The IC50 in assay [2] is over 1000 nM.

Consider `N#C[C@@H]1C[C@@]2(CN1S(=O)(=O)c1ccccc1)C(=O)Nc1ccccc12` [Example 55], for which, in assay [2], the IC50 was over 1000 nM.

As to `CC(C)CN1C[C@]2(C[C@H]1C#N)C(=O)Nc1ccccc12` [Example 64], in assay [2], the IC50 is over 1000 nM.

With `N#C[C@@H]1C[C@@]2(CN1C(=O)C(=O)N[C@H]1CC[C@H](C(F)(F)F)CC1)C(=O)Nc1ccccc12` [Example 149], the IC50 in assay [2] is over 1000 nM.

For the molecule `N#C[C@@H]1C[C@@]2(CN1C(=O)NCc1cc3ccccc3[nH]1)C(=O)Nc1ccccc12` [Example 130], the IC50 in assay [2] was over 1000 nM.

Take `CC(C)(C(=O)c1ccccc1)C(=O)N1C[C@]2(C[C@H]1C#N)C(=O)Nc1ccccc12` [Example 111]: the IC50 in assay [2] is over 1000 nM.

For the molecule `CC(C)C(=O)NN1C[C@]2(C[C@H]1C#N)C(=O)Nc1ccccc12` [Example 139], the IC50 in assay [2] was over 1000 nM.

For `CC(C)NC(=O)C(=O)N1C[C@]2(C[C@H]1C#N)C(=O)Nc1ccccc12` [Example 89], the half-maximal inhibitory concentration (IC50) in assay [2] is over 1000 nM.

As to `N#C[C@@H]1C[C@@]2(CN1C(=O)C(=O)NC1CC1)C(=O)Nc1ccccc12` [Example 78], the IC50 in assay [2] was over 1000 nM.

Take `N#C[C@@H]1C[C@@]2(CN1C(=O)C(=O)OC1CCCCC1)C(=O)Nc1ccccc12` [Example 113]: the IC50 in assay [2] is 100 to 1000 nM.

Regarding `N#C[C@@H]1C[C@@]2(CN1CC1CC1)C(=O)Nc1ccccc12` [Example 66], the IC50 in assay [2] was over 1000 nM.

On to `C[C@]1(O)CC[C@H](NC(=O)C(=O)N2C[C@]3(C[C@H]2C#N)C(=O)Nc2ccccc23)CC1` [Example 177], for which, in assay [2], the 50% inhibitory concentration (IC50) was over 1000 nM.

Turning to `N#C[C@@H]1C[C@@]2(CN1C(=O)CC(=O)N[C@H]1CCC[C@@H]1O)C(=O)Nc1ccccc12` [Example 171], the IC50 in assay [2] is over 1000 nM.

Regarding `N#C[C@@H]1C[C@@]2(CN1C(=O)[C@H](Cc1ccccc1)C(=O)NC1CCCCC1)C(=O)Nc1ccccc12` [Example 118], the concentration for half-maximal inhibition (IC50) in assay [2] was in the range of 100 to 1000 nM.

Take `N#C[C@@H]1C[C@@]2(CN1C(=O)C(Cc1ccccc1)C(=O)C1CC1)C(=O)Nc1ccccc12` (stereo partly shown) [Example 92]: the IC50 in assay [2] was in the range of 100 to 1000 nM.

Take `N#C[C@@H]1C[C@@]2(CN1C(=O)C(=O)NCC1CCCCC1)C(=O)Nc1ccccc12` [Example 154]: the IC50 in assay [2] is 100 to 1000 nM.

With `N#C[C@@H]1C[C@@]2(CN1C(=O)C(=O)N[C@H]1CCC(F)(F)C1)C(=O)Nc1ccccc12` [Example 146], the IC50 in assay [2] is 100 to 1000 nM.

The EC50 is the concentration giving half of the maximal effect. Usually IC50 stands for the concentration at which inhibition is half-maximal.
